Assay results from patent US9975869B2 (Sphaera Pharma Pvt. Ltd., priority 2013, dated 2018).

Tested on: AMPK
Assay: AMPK activation potential, cell based ELISA (Phospho-AMPKα Thr172) in Hep G2 cells
Settings: 10 nm concentration; Hep G2 liver cells; % activity with DMSO control as 100%; 30 min incubation for Epicatechin analogs
Procedure: Testing of Compounds for Their AMPK Activation Potential
AMPK activation potential of the compounds was evaluated using cell based ELISA. Hepatoma (Hep G2) liver cells were maintained in a T 75 culture flask-containing 25 mM DMEM+10% fetal calf serum. The cells were maintained in a T 75 culture flask-containing medium (DMEM+10% fetal calf serum). On reaching a confluence of 70 to 80%, the cells were seeded in a 96 well plate at a density of 40,000 cells per well in 25 mM DMEM+10% FCS medium. The plates were then incubated at 37° C. with 5% CO2 for 24 hours. Various concentrations of drugs were prepared in DMSO and diluted to required concentration with the medium and incubated at 37° C. with 5% CO2 for 30 min and 1 h for Epicatechin analogs and 11-BHP analogs respectively. Metformin was used as positive control. Cells were fixed with 4% formaldehyde for 30 minutes at room temperature and washed three times with PBS containing 0.1% Triton X-100. Endogenous peroxidase was quenched with 1% H2O2 in PBS-T (0.1% Tween 20) for 30 minutes and washed three times in PBS-T. Cells were blocked with 1% BSA in PBS-T for 1 hour. The cells were incubated with 1:1000 dilution primary antibody (Phospho-AMPKα (Thr172) Rabbit mAb, Cell Signaling in PBS-T containing 5% BSA at 4° C. overnight. The cells were then washed three times with PBS-T for 5 minutes and incubated with 1:1000 dilution secondary antibody (Anti-rabbit IgG, HRP-linked Antibody, Cell Signaling) in PBS-T with 1% BSA for 1 hour at RT. Cells were washed three times with PBS-T for 5 minutes The cells were incubated with 100 μl TMB substrate solution for 30 minutes and the reaction was stopped with 100 μl of 2N H2SO4. Then the plate was read at 450 nm using ELISA plate reader and absorbance recorded. % activity was calculated using DMSO control as 100%. All compounds of the present invention, as exemplified and encompassed are found to be active.

SMILES	% pAMPK(at 10 nm) [%]
CCCO[C@@H]1Cc2ccc(O)cc2OC1c1cccc(O)c1 (stereo in doubt) [Compound 1030, 2-(3-hydroxyphenyl)-3-propoxychroman-7-ol]	94
Oc1cc(O)c2c(c1)O[C@H](c1cc(O)c(O)cc1F)[C@H](O)C2 (racemic) [Compound 1033, Cis (±) 2-(2-fluoro-4,5-dihydroxyphenyl)chromane-3,5,7-triol]	107
CCOC(=O)O[C@@H]1Cc2c(O)cc(O)cc2O[C@@H]1c1ccc(O)c(O)c1 [Compound 1053, (2R,3R)-2-(3,4-dihydroxyphenyl)-5,7-dihydroxychroman-3-yl ethyl carbonate]	94
CC(C)(C)COC(=O)Oc1ccc([C@H]2Oc3cc(O)cc(O)c3C[C@H]2O)cc1OC(=O)OCC(C)(C)C [Compound 1072, dineopentyl (4-((2R,3R)-3,5,7-trihydroxychroman-2-yl)-1,2-phenylene) bis(carbonate)]	99
Oc1cc(O)c2c(c1)O[C@H](c1ccc(O)c(O)c1F)[C@H](O)C2 (racemic) [Compound 1032, Cis (±) 2-(2-fluoro-3,4-dihydroxyphenyl)chroman-3,5,7-triol]	104
O=C(OCc1ccccc1)Oc1cc(OC(=O)OCc2ccccc2)c2c(c1)O[C@H](c1ccc(OC(=O)OCc3ccccc3)c(OC(=O)OCc3ccccc3)c1)[C@H](O)C2 [Compound 1052, dibenzyl (4-((2R,3R)-5,7-bis(((benzyloxy)carbonyl)oxy)-3-hydroxychroman-2-yl)-1,2-phenylene) bis(carbonate)]	103
COC(=O)Oc1cc(OC(=O)OC)c2c(c1)O[C@H](c1ccc(OC(=O)OCc3ccccc3)c(OC(=O)OCc3ccccc3)c1)[C@H](O)C2 [Compound 1066, dibenzyl (4-((2R,3R)-3-hydroxy-5,7-bis((methoxycarbonyl)oxy)chroman-2-yl)-1,2-phenylene) bis(carbonate)]	139
COc1cccc([C@H]2Oc3cc(OC)ccc3C[C@H]2O)c1 (racemic) [Compound 1019]	101
O=C(NCc1ccccc1)Oc1ccc([C@H]2Oc3cc(O)cc(O)c3C[C@H]2O)cc1OC(=O)NCc1ccccc1 [Compound 1059, 4-((2R,3R)-3,5,7-trihydroxychroman-2-yl)-1,2-phenylene bis(benzylcarbamate)]	144
Oc1cc(O)c2c(c1)O[C@H](c1ccc(O)c(F)c1)[C@H](O)C2 (racemic) [Compound 1034, Cis (±) 2-(3-fluoro-4-hydroxyphenyl)chromane-3,5,7-triol]	107
Cc1c([C@H]2Oc3cc(O)cc(O)c3C[C@H]2O)ccc(O)c1O (racemic) [Compound 1031, Cis (±) 2-(3,4-dihydroxy-2-methylphenyl)chroman-3,5,7-triol]	101
CCCCCCCC(=O)Oc1cc(O)cc2c1C[C@@H](O)[C@@H](c1ccc(O)c(O)c1)O2 [Compound 1064, (2R,3R)-2-(3,4-dihydroxyphenyl)-3,7-dihydroxychroman-5-yl octanoate]	110
CCCO[C@@H]1Cc2ccc(O)cc2O[C@@H]1c1cccc(OC)c1 [Compound 1068, (2R,3R)-2-(3-methoxyphenyl)-3-propoxychroman-7-ol]	90
CC(C)OC(=O)O[C@@H]1Cc2c(O)cc(O)cc2O[C@@H]1c1ccc(O)c(O)c1 [Compound 1055, (2R,3R)-2-(3,4-dihydroxyphenyl)-5,7-dihydroxychroman-3-yl isopropyl carbonate]	105
CC(C)COC(=O)Oc1cc(OC(=O)OCC(C)C)c2c(c1)O[C@H](c1ccc(O)c(O)c1)[C@H](O)C2 [Compound 1050, (2R,3R)-2-(3,4-dihydroxyphenyl)-3-hydroxychromane-5,7-diyl diisobutyl bis(carbonate)]	91
CC(C)(C)OC(=O)O[C@@H]1Cc2c(O)cc(O)cc2O[C@@H]1c1ccc(O)c(O)c1 [Compound 1073, tert-butyl ((2R,3R)-2-(3,4-dihydroxyphenyl)-5,7-dihydroxychroman-3-yl) carbonate]	109
Oc1ccc2c(c1)OC(c1ccc(F)c(O)c1)[C@H](O)C2 (stereo in doubt) [Compound 1029, 2-(4-fluoro-3-hydroxyphenyl)chromane-3,7-diol]	93
COC(=O)Oc1cc(OC(=O)OC)c2c(c1)O[C@H](c1ccc(O)c(O)c1)[C@H](O)C2 [Compound 1058, (2R,3R)-2-(3,4-dihydroxyphenyl)-3-hydroxychromane-5,7-diyl dimethyl bis(carbonate)]	117

SMILES	% pAMPK(at 10 nm) [%]
O=C(NCc1ccccc1)Oc1cc(OC(=O)NCc2ccccc2)c2c(c1)O[C@H](c1ccc(OC(=O)NCc3ccccc3)c(OC(=O)NCc3ccccc3)c1)[C@H](O)C2 [Compound 1051, 4-((2R,3R)-5,7-bis((benzylcarbamoyl)oxy)-3-hydroxychroman-2-yl)-1,2-phenylene bis(benzylcarbamate)]	85
CN(C)C(=O)O[C@@H]1Cc2c(O)cc(O)cc2O[C@@H]1c1ccc(O)c(O)c1 [Compound 1047, (2R,3R)-2-(3,4-dihydroxyphenyl)-5,7-dihydroxychroman-3-yl dimethylcarbamate]	100
Cc1ccc([C@H]2Oc3cc(O)ccc3C[C@H]2O)cc1O [Compound 1069, (2R,3R)-2-(3-hydroxy-4-methylphenyl)chromane-3,7-diol]	110
Oc1cc(O)c2c(c1)O[C@H](c1ccccc1)[C@H](O)C2 (racemic) [Compound 1015, Cis (±) 2-phenylchroman-3,5,7-triol]	119
Oc1ccc([C@H]2Oc3ccccc3C[C@H]2O)cc1O (racemic) [Compound 1002, Cis (±) 3-hydroxychroman-2-yl)benzene-1,2-diol]	108
CCCCCCCC(=O)Oc1ccc([C@H]2Oc3cc(O)cc(O)c3C[C@H]2O)cc1O [Compound 1043, 2-hydroxy-4-((2R,3R)-3,5,7-trihydroxychroman-2-yl)phenyl octanoate]	98
COc1cccc([C@H]2Oc3cc(O)ccc3C[C@H]2O)c1 (racemic) [Compound 1017]	110
[2H]C1([2H])c2c(O)cc(O)cc2O[C@H](c2ccc(O)c(O)c2)[C@@H]1O [Compound 1036, (2R,3R)-2-(3,4-dihydroxyphenyl)chromane-4,4-d2-3,5,7-triol]	105
O=C(OCc1ccccc1)Oc1ccc([C@H]2Oc3cc(O)cc(O)c3C[C@H]2O)cc1OC(=O)OCc1ccccc1 [Compound 1048, dibenzyl (4-((2R,3R)-3,5,7-trihydroxychroman-2-yl)-1,2-phenylene) bis(carbonate)]	103
O=C(O[C@@H]1Cc2c(O)cc(O)cc2O[C@@H]1c1ccc(O)c(O)c1)c1cccnc1 [Compound 1071, (2R,3R)-2-(3,4-dihydroxyphenyl)-5,7-dihydroxychroman-3-yl nicotinate]	102
[2H][C@]1(c2ccc(O)c(O)c2)Oc2cc(O)cc(O)c2C[C@H]1O [Compound 1037, (2R,3R)-2-(3,4-dihydroxyphenyl)chromane-2-d-3,5,7-triol]	110
Oc1ccc([C@H]2Oc3cc(O)ccc3C[C@H]2O)cc1 (racemic) [Compound 1004, Cis (±) 2-(4-hydroxyphenyl)chroman-3,7-diol]	114
Cc1cc([C@H]2Oc3cc(O)cc(O)c3C[C@H]2O)cc(O)c1O (racemic) [Compound 1035, Cis (±) (2-(3,4-dihydroxy-5-methylphenyl)chromane-3,5,7-triol]	102
COc1ccc2c(c1)O[C@H](c1cccc(O)c1)[C@H](O)C2 (racemic) [Compound 1018]	100
COC(=O)Oc1ccc([C@H]2Oc3cc(O)cc(O)c3C[C@H]2O)cc1OC(=O)OC [Compound 1049, dimethyl (4-((2R,3R)-3,5,7-trihydroxychroman-2-yl)-1,2-phenylene) bis(carbonate)]	105
Oc1ccc([C@H]2Oc3cc(O)cc(O)c3C[C@H]2O)cc1 (racemic) [Compound 1008, Cis (±) 2-(4-hydroxyphenyl)chroman-3,5,7-triol]	103
CC(C)(C)COC(=O)Oc1cc([C@H]2Oc3cc(O)cc(O)c3C[C@H]2O)ccc1O [Compound 1042, 2-hydroxy-5-((2R,3R)-3,5,7-trihydroxychroman-2-yl)phenyl neopentyl carbonate]	95
CC(C)NC(=O)O[C@@H]1Cc2c(O)cc(O)cc2O[C@@H]1c1ccc(O)c(O)c1 [Compound 1046, (2R,3R)-2-(3,4-dihydroxyphenyl)-5,7-dihydroxychroman-3-yl isopropylcarbamate]	101
